Test results published in ChEMBL document CHEMBL5150016, “Inhibiting Sodium Taurocholate Cotransporting Polypeptide in HBV-Related Diseases: From Biological Function to Therapeutic Potential” (J Med Chem, 2022).
≈ marks a conversion by molar mass, not a printed value. One block for each compound: values may come before it.

Experiments:
Hepatitis B virus [1] = assay: Antiviral activity against HBV infected HepG2 2.2.15 cells assessed as reduction in HBsAg level at 50 microg/ml for 48 hrs by ELISA; format: functional, organism-based; parameters: Activity: scale not given: the % may be the effect or the level left; settings: for Activity: dose 50 µg/ml, time 48 hrs
[2] = biological target: T1, Hepatic sodium/bile acid cotransporter (Homo sapiens, UniProt Q14973); assay: Inhibition of HBV subgenotype D3 [3H]-myr-preS1 (2 to 48 residues) peptide binding to human NTCP in HEK293 cells preincubated for 5 mins followed by substrate addition and measured after 10 mins using by microplate scintillation counter analysis; format: cell-based
T1 sequence (Q14973 whole entry): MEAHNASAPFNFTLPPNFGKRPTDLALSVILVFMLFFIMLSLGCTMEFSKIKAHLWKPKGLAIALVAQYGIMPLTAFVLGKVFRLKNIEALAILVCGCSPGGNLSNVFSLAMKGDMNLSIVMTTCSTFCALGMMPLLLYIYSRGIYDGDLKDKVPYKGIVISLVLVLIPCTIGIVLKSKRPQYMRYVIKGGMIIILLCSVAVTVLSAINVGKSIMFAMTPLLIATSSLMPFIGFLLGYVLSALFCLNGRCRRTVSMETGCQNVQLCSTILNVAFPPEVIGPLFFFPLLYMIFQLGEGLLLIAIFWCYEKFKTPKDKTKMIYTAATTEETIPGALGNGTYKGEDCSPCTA

Hepatitis delta virus [3] = assay: Antiviral activity against hepatitis D virus infected in human HepG2-hNTCP cells assessed as reduction in viral replication preincubated for 5 mins followed by viral infection measured after 6 hrs post infection by RT-qPCR analysis; format: functional, organism-based
Hepatitis delta virus [4] = assay: Antiviral activity against hepatitis D virus infected in human Huh-7 cells overexpressing NTCP assessed as reduction in intracellular HDV RNA for 20 hrs followed by viral infection further compound washout and measured after 6 days post infection by RT-qPCR analysis; format: functional, organism-based
[5] = biological target: T1, Hepatic sodium/bile acid cotransporter; assay: Inhibition of TAMRA-labeled preS1-peptide binding to human NTCP in HepG2-hNTCP cells incubated for 30 mins by […]; format: cell-based
[6] = biological target: T1, Hepatic sodium/bile acid cotransporter; assay: Inhibition of human NTCP mediated TCA uptake in HepG2-hNTCP cells incubated for 15 mins using [3H] taurocholic acid as substrate by liquid scintillation counter analysis; format: cell-based
Hepatitis B virus [7] = assay: Antiviral activity against HBV infected human HepG2-hNTCP cells assessed as reduction of HBV DNA level preincubated for 3 hrs followed by viral infection for 16 hrs further compound washout and measured 6 days post infection by qPCR analysis; format: functional, organism-based
Hepatitis B virus [8] = assay: Antiviral activity against HBV infected HepG2 2.2.15 cells assessed as reduction in HBsAg level and measured after 9 days by ELISA; format: functional, organism-based; settings: HepG2 2.2.15, 216 h
Hepatitis B virus [9] = assay: Antiviral activity against HBV infected HepG2 2.2.15 cells assessed as reduction in HBeAg level and measured after 9 days by ELISA; format: functional, organism-based; settings: HepG2 2.2.15, 216 h
Hepatitis B virus [10] = assay: Antiviral activity against HBV infected in human HepG2-hNTCP cells assessed as reduction in HBsAg level preincubated for 2 hrs followed by viral infection for 16 hrs further compound washout and measured after 12 days post infection by ELISA; format: functional, organism-based
Hepatitis B virus [11] = assay: Antiviral activity against HBV infected in human HepG2-hNTCP cells assessed as reduction in intracellular HBV RNA incubated for 16 hrs followed by compound washout and measured after 6 days post infection by ELISA; format: functional, organism-based
HepG2 = assay: Antiproliferative activity against human HEpG2 cells; format: functional, cell-based
Hepatitis B virus [12] = assay: Antiviral activity against HBV infected HepG2 cells assessed as reduction in HBsAg level; format: functional, organism-based; settings: HepG2 2.2.15
Hepatitis B virus [13] = assay: Antiviral activity against HBV infected HepG2 cells assessed as reduction in HBeAg level; format: functional, organism-based; settings: HepG2 2.2.15
Hepatitis B virus [14] = assay: Antiviral activity against HBV infected human DMSO differentiated HuS-E/2 cells overexpressing NTCP assessed as assessed as inhibition of viral entry by measuring HBV mRNA level by qPCR analysis; format: functional, organism-based
Hepatitis B virus [15] = assay: Antiviral activity against HBV infected human DMSO differentiated HuS-E/2 cells overexpressing NTCP assessed as assessed as inhibition of viral entry by measuring HBV mRNA level at 20 uM by qPCR analysis relative to control; format: functional
[16] = biological target: T1, Hepatic sodium/bile acid cotransporter; assay: Inhibition of human NTCP mediated TCA uptake in U2OS expresseing HA-tagged NTCP cells preincubated for 10 mins followed by substrate addition and measured after 2 mins using [3H]-taurocholate as substrate by liquid scintillation counter analysis; format: cell-based
[17] = biological target: T1, Hepatic sodium/bile acid cotransporter; assay: Inhibition of preS1-peptide binding to human HA-tagged NTCP in U2OS expresseing NTCP in incubated for 24 hrs using Myrcludex B as substrate by competitive binding assay; format: cell-based
[18] = biological target: T1, Hepatic sodium/bile acid cotransporter; assay: Binding affinity to NTCP (unknown origin)
Hepatitis B virus [19] = assay: Antiviral activity against HBV infected HepG2 2.2.15 cells assessed as reduction in HBeAg level at 50 microg/ml for 48 hrs by ELISA; format: functional; parameters: scale not given: the % may be the effect or the level left; settings: dose 50 µg/ml
Hepatitis B virus [20] = assay: Antiviral activity against HBV infected human DMSO differentiated HuS-E/2 cells assessed as reduction of HBV core protein level incubated for 20 hrs by Western blot analysis; format: functional, organism-based; settings: HuS-E/2, 20 h
Hepatitis B virus [21] = assay: (§1) Antiviral activity against HBV infected in human DMSO differentiated imHC cells assessed as reduction in intracellular HBV DNA at 30 uM preincubated for 2 hrs followed by viral infection for 18 hrs followed by compound washout and further treated with fresh compound for 24 hrs and measured on day 7 post infection by real-time qPCR analysis; format: functional; parameters: scale not given: the % may be the effect or the level left; settings: time 44 hrs
Hepatitis B virus [22] = assay: as §1, with “viral load” for “intracellular HBV DNA”; format: functional; parameters: scale not given: the % may be the effect or the level left; settings: time 44 hrs
[23] = biological target: T1, Hepatic sodium/bile acid cotransporter; assay: Binding affinity to human NTCP assessed as dissociation constant by isothermal titration calorimetry

SMILES: O[C@H](c1ccc([C@@H](O)[C@@H](c2ccccn2)[C@H](Nc2ccccn2)c2ccccc2)cc1)[C@@H](c1ccccn1)[C@H](Nc1ccccn1)c1ccccc1
IC50 [2]: 6.5 µM | IC50 (Hepatitis delta virus [3]): 70 µM

SMILES: C=C(CO)[C@@H]1CC[C@]2(COC(C)=O)CC[C@]3(C)[C@H](CC[C@@H]4[C@@]5(C)CC[C@H](OC(C)=O)C(C)(C)[C@@H]5CC[C@]43C)[C@@H]12
IC50 [2]: 8 µM

SMILES: CCCCC1=NC2(CCCC2)C(=O)N1Cc1ccc(-c2ccccc2-c2nnn[nH]2)cc1 [IRBESARTAN]
EC50 (Hepatitis delta virus [4]): 9.4 µM

SMILES: C=C(C)[C@@H]1CC[C@]2(COC(C)=O)CC[C@]3(C)[C@H](CC[C@@H]4[C@@]5(C)CC[C@H](OC(C)=O)C(C)(C)[C@@H]5CC[C@]43C)[C@@H]12 [BETULIN DIACETATE]
IC50 [2]: 199 µM

SMILES: CN1CCCC(n2nc(Cc3ccc(Cl)cc3)c3ccccc3c2=O)CC1 (stereo not given) [AZELASTINE]
IC50 (Hepatitis B virus [8]): 7.5 µM | IC50 (Hepatitis B virus [9]): 3.7 µM

SMILES: CC1(COc2ccc(CC3SC(=O)NC3=O)cc2)CCCCC1 (stereo not given) [CIGLITAZONE]
IC50 (Hepatitis B virus [10]): 5 µM

SMILES: C=C(C)[C@@H]1CC[C@]2(CO)CC[C@]3(C)[C@H](CC[C@@H]4[C@@]5(C)CC[C@H](OC(=O)/C=C/c6ccc(O)c(O)c6)C(C)(C)[C@@H]5CC[C@]43C)[C@@H]12
IC50 [2]: 6 µM

SMILES: O=C1NC(=O)C(Cc2ccc(OCc3ccc(-c4ccccc4)cc3)cc2)S1 (stereo not given)
IC50 (Hepatitis B virus [11]): 5.2 µM

SMILES: CC(C)(C)OC(=O)N1CCN(CC(=O)NCc2cccc(CNS(=O)(=O)c3ccc(C(F)(F)F)cc3)c2)CC1
IC50 (HepG2): 7.36 µM | IC50 (Hepatitis B virus [12]): 3.24 ng/mL (≈ 0.00568 µM) | IC50 (Hepatitis B virus [13]): 7.64 ng/mL (≈ 0.0134 µM)

SMILES: CC(C)[C@@H](C)/C=C/[C@@H](C)[C@H]1CC[C@@H]2[C@]1(C)CC[C@H]1[C@]23C=C[C@]2(C[C@@H](O)CC[C@]12C)OO3 [ERGOSTEROL PEROXIDE]
EC50 (Hepatitis B virus [14]): 9.64 µM | inhibition at 20 µM (Hepatitis B virus [15]): 75%

SMILES: COc1cc(-c2ccc(/N=N/c3ccc4c(S(=O)(=O)O)cc(S(=O)(=O)O)c(N)c4c3O)c(OC)c2)ccc1/N=N/c1ccc2c(S(=O)(=O)O)cc(S(=O)(=O)O)c(N)c2c1O [CHICAGO SKY BLUE]
IC50 [16]: 7.1 µM | IC50 [17]: > 1 µM

SMILES: O=C1[C@H](CC[C@H](O)c2ccc(F)cc2)[C@@H](c2ccc(O)cc2)N1c1ccc(F)cc1 [EZETIMIBE]
Ki [18]: 25 µM | EC50 (Hepatitis delta virus [4]): 10.4 µM

SMILES: C[C@H]1O[C@H](Oc2c(-c3cc(O)c(O)c(O)c3)oc3cc(O)cc(O)c3c2=O)[C@@H](O)[C@@H](O)[C@@H]1O
Activity (Hepatitis B virus [1]): 44% | Activity (Hepatitis B virus [19]): 35%

SMILES: CC(C)c1nc(CN(C)C(=O)N[C@H](C(=O)N[C@@H](Cc2ccccc2)C[C@H](O)[C@H](Cc2ccccc2)NC(=O)OCc2cncs2)C(C)C)cs1 [RITONAVIR]
EC50 (Hepatitis delta virus [4]): 9.1 µM

SMILES: C=C(C)[C@@H]1CC[C@]2(/C=N/O)CC[C@]3(C)[C@H](CC[C@@H]4[C@@]5(C)CC[C@H](O)C(C)(C)[C@@H]5CC[C@]43C)[C@@H]12
IC50 [2]: 11 µM

SMILES: CCCCCCc1c(C)c2ccc(OCC(=O)NC(Cc3ccccc3)C(=O)O)cc2oc1=O (stereo not given)
IC50 [5]: 145 µM | IC50 [6]: 12.5 µM

SMILES: O=C(O[C@@H]1Cc2c(O)cc(O)cc2O[C@@H]1c1cc(O)c(O)c(O)c1)c1cc(O)c(O)c(O)c1 [EPIGALOCATECHIN GALLATE]
IC50 (Hepatitis B virus [20]): 10 µM

SMILES: O=c1c(O)c(-c2ccc(O)c(O)c2)oc2cc(O)cc(O)c12 [QUERCETIN]
Activity (Hepatitis B virus [1]): 60% | Activity (Hepatitis B virus [19]): 62%

The next lines start with results.

IC50 (Hepatitis B virus [1]; Hepatitis B virus, HepG2 2.2.15, 48 h): 5.1 µM
SMILES: CN(CCOc1ccc(CC2SC(=O)NC2=O)cc1)c1ccccn1 (stereo not given) [ROSIGLITAZONE]

IC50 [5]: 150 µM | IC50 [6]: 13.3 µM
SMILES: Cc1c(Cc2ccccc2)c(=O)oc2cc(OCC(=O)NC(CSCc3ccccc3)C(=O)O)ccc12 (stereo not given)

IC50 (Hepatitis B virus [7]): 30 µM
SMILES: Cc1cc(OCCCS(C)(=O)=O)cc(C)c1-c1cccc(COc2ccc3c(c2)OC[C@H]3CC(=O)O)c1

IC50 (Hepatitis B virus [10]): 10 µM
SMILES: Cc1c(C)c2c(c(C)c1O)CCC(C)(COc1ccc(CC3SC(=O)NC3=O)cc1)O2 (stereo not given) [TROGLITAZONE]

IC50 [5]: 238 µM | IC50 [6]: 17.8 µM
SMILES: CCCCCCc1cc2ccc(OCC(=O)NC(CCSC)C(=O)O)cc2oc1=O (stereo not given)

IC50 [2]: 16 µM | IC50 (Hepatitis delta virus [3]): 15 µM
SMILES: O=Cc1cccc([C@@H]([C@H](Nc2ccccn2)c2ccccc2)[C@@H](O)c2ccccc2)n1

IC50 [17]: > 1 µM
SMILES: COc1cc(C(=O)NS(=O)(=O)c2ccccc2C)ccc1Cc1cn(C)c2ccc(NC(=O)OC3CCCC3)cc12 [ZAFIRLUKAST]

IC50 (Hepatitis B virus [11]): 1.7 µM
SMILES: O=C1NC(=O)/C(=C/c2ccc(-c3ccc(-c4cccc5ccccc45)cc3)cc2)S1

IC50 [2]: 16.5 µM | IC50 (Hepatitis delta virus [3]): 70 µM
SMILES: COc1ccc([C@H](O)[C@H](c2ccccn2)[C@@H](Nc2ccccn2)c2ccccc2)cc1

IC50 [17]: > 1 µM
SMILES: O=C(O)c1cc(/N=N/c2ccc(S(=O)(=O)Nc3ccccn3)cc2)ccc1O [SULFASALAZINE]

IC50 (Hepatitis B virus [12]): 3.95 ng/mL (≈ 0.00906 µM) | IC50 (Hepatitis B virus [13]): 15 ng/mL (≈ 0.0344 µM)
SMILES: Cc1ccc(C(=O)NCC(=O)N/N=C/c2ccccc2OCc2ccccc2Cl)cc1

IC50 [5]: 123 µM | IC50 [6]: 16.2 µM
SMILES: Cc1c(OCC(=O)NC(CSCc2ccccc2)C(=O)O)ccc2c3c(c(=O)oc12)CCCC3 (stereo not given)

IC50 (Hepatitis B virus [11]): 3.8 µM
SMILES: O=C1N=C(O)S/C1=C\c1ccc(OCc2ccc(-c3ccccc3)cc2)cc1

Kd [23]: 64.3 µM
SMILES: COc1cc(/C=C/C(=O)CC(=O)/C=C/c2ccc(O)c(OC)c2)ccc1O [CURCUMIN]
Activity (Hepatitis B virus [21]): 67% | Activity (Hepatitis B virus [22]): 55%
